Source: patent US20060024414A1, “Methods for preserving food products” (Kraft Foods Holdings, Inc., priority 2004, published 2006)

Tests used:
[1] = system: Listeria monocytogenes; conditions: cells sensitized with the antioxidant at the time of pressure treatment; Mackey et al. 1995; cited from earlier work
[2] = system: Listeria monocytogenes; conditions: model milk system; Payne et al. 1989; cited from earlier work
[3] = system: Listeria monocytogenes Scott A; test: Pressure inactivation in phosphate buffer, plate count; format: cell-based; conditions: TBHQ about 100 ppm
Procedure: (§1) Three strains of Listeria monocytogenes identified in Example 1 were grown in tryptose broth for 18 hours at 37° C. Cultures were centrifuged at 10,000 rpm for 15 minutes at 4° C. Cell pellets were resuspended in phosphate buffer (pH 7.0) and the cell population of each strain was adjusted to 10^9 CFU/ml. Tert-butylhydroquinone was added at about 100 ppm (10% vol/vol TBHQ/culture). Preparation of sample bags and the high pressure treatment procedures were same as indicated in Example 1. Pressures tested were 300, 500, and 700 MPa. Control and high pressure-treated treated samples were serially diluted in 0.1% peptone water and spread-plated on tryptose agar. The plates were incubated at 37° C. for 48-72 hours and the colonies were counted.
(§2) The detection level for enumeration was 10 CFU/ml. The initial population of OSY-328 averaged about 8.9 logs; therefore, more than 7.9 log reduction indicates below the detection level.

[4] = system: Listeria monocytogenes OSY-8578; test: as above; format: cell-based; conditions: TBHQ about 100 ppm
Procedure: as §1, §2

[5] = system: Listeria monocytogenes OSY-328; test: as above; format: cell-based; conditions: TBHQ about 100 ppm
Procedure: as §1, §2

[6] = system: Listeria monocytogenes Scott A; test: Inoculated bagged Vienna sausage challenge, warm enrichment/plating for survivors; format: cell-based; conditions: about 5 min; for Percentage of Bags Testing Positive For Listeria in Batch of 5 (±S.D.): sausage about 10^6 CFU/g; for Percentage of Bags Testing Positive For Listeria in Batch of 3 (±S.D.): TBHQ 300 ppm, sausage about 10^6 per g
Procedure: (§3) In another embodiment, a food substrate processed according to methods of this invention has nondetectable levels of Listeria (even if contamination has occurred). […] The mixture is incubated at 37° C. for 48 hours, followed by the enrichment (mixture) being streaked on Oxford agar or […] agar, and observing the streaked plate for the presence/absence of Listeria. […] Tailing effects also may be reduced or eliminated by methods of the present invention. The presence or absence of other microorganisms may be detected using similar techniques modified for the specific microorganism under consideration. The edible hydroquinone was tert-butylhydroquinone (TBHQ) at a level of either 0 or 100 ppm. The tert-butylhydroquinone was a food grade material obtained from Sigma Chemical Co. (St. Louis, Mo.). The lantibiotic was nisin at a level of either 0 or 100 IU/g. The nisin used was either pure nisin or a commercial nisin ([…]®), both from Aplin & Barrett, Ltd. (Trowbridge, England). […] Nisin samples were prepared by dissolving nisin powder in distilled water, adjusting the pH to 2 with HCl, and sterilizing at 121° C. for 10 minutes. Samples were prepared and used on the same day for each experiment. Three strains of Listeria monocytogenes were used in these challenge studies. Listeria monocytogenes Scott A, OSY-8578, and OSY-328, were obtained from the Food Safety Laboratory of the Department of Food Science and Technology at The Ohio State University (Columbus, Ohio). All experiments were carried out with cultures in stationary phase (grown in tryptose broth (TB; Difco Laboratories, Detroit, Mich.) for 18 hours at 37° C.). […] The hydrostatic pressure used was 600 MPa. For comparison purposes, samples were also treated with no hydrostatic pressure (i.e., under atmospheric pressure). A hydrostatic food processor (Quintus QFP-6, ABB Autoclave Systems, Inc., Columbus, Ohio) was used with a pressure transmitting fluid containing a water/propylene glycol (1:1 vol/vol; Houghto-Safe 620-TY, Houghton International, Inc., Valley Forge, Pa.). Samples were held in a refrigerator before processing and placed on ice following treatment. The temperature during each run was monitored using a thermocouple and a datalogger (Campbell Scientific, Inc., Logan, Utah). […] Canned Vienna sausage (Armour®, The Dial Corporation, Scottsdale, Ariz.) was purchased from local grocery stores. […] One milliliter of each additive, alone or in combinations, was added, and the bags were sealed using vacuum […], Kansas City, Mo.). […] Non-pressurized samples were treated in a similar manner except that no pressure was applied. After high pressure processing, bags were opened aseptically. […] The presence or absence of L. monocytogenes survivors in the samples was determined by streaking the incubated mixture onto Oxford agar and/or […] agar. Each test run consisted of 5 tested bags at a given set of variables; the experiment was repeated 4 times. Treatment conditions required for essentially total elimination of L. monocytogenes were determined using essentially the same materials and procedures as used in Example 1 except that the nisin level was 0, 100, or 200 IU/g; the hydroquinone level was 0, 100, 200, or 300 ppm; and each experiment was repeated 3 times.

[7] = system: Listeria monocytogenes OSY-8578; test: as above; format: cell-based; conditions: about 5 min; for Percentage of Bags Testing Positive For Listeria in Batch of 5 (±S.D.): sausage about 10^6 CFU/g; for Percentage of Bags Testing Positive For Listeria in Batch of 3 (±S.D.): TBHQ 300 ppm, sausage about 10^6 per g
Procedure: as §3

[8] = system: Listeria monocytogenes OSY-328; test: as above; format: cell-based; conditions: about 5 min; for Percentage of Bags Testing Positive For Listeria in Batch of 5 (±S.D.): sausage about 10^6 CFU/g; for Percentage of Bags Testing Positive For Listeria in Batch of 3 (±S.D.): TBHQ 300 ppm, sausage about 10^6 per g
Procedure: as §3

[9] = system: Listeria monocytogenes strains; test: Tailing behaviour during pressure treatment in phosphate buffer; format: cell-based; conditions: combination of high pressure (300, 500, 700 MPa) and TBHQ about 100 ppm
Procedure: as §1, §2

[10] = 300 MPa, 0 min (come-up, immediate depressurization)
[11] = 500 MPa, 0 min (come-up, immediate depressurization)
[12] = 700 MPa, 0 min (come-up, immediate depressurization)
[13] = Run 3: 0 MPa, nisin 0 IU/g, TBHQ 100 ppm
[14] = Run 7: 600 MPa, nisin 0 IU/g, TBHQ 100 ppm
[15] = Run 2: 0 MPa, nisin 100 IU/g, TBHQ 0 ppm
[16] = Run 6: 600 MPa, nisin 100 IU/g, TBHQ 0 ppm

## COc1ccc(O)c(C(C)(C)C)c1 [BHA, butylated hydroxyanisole]
[1]
  resistance of Listeria monocytogenes to high hydrostatic pressure treatment (sensitizing effect): reduced

## Cc1cc(C(C)(C)C)c(O)c(C(C)(C)C)c1 [BHT, Butylated hydroxy toluene]
[1]
  resistance of Listeria monocytogenes to high hydrostatic pressure treatment (sensitizing effect): not effective

## CCCOC(=O)c1ccc(O)cc1 [Propyl paraben]
[2]
  antimicrobial activity against Listeria monocytogenes: only consistently active inhibitor

## CC(C)(C)c1cc(O)ccc1O [TBHQ, tert-butylhydroquinone]
[3]; [10]
  Average Log Reduction: 0 log
[3]; 300 MPa, 1 min
  Average Log Reduction: 0 log
[3]; 300 MPa, 5 min
  Average Log Reduction: 2.2 log
[3]; 300 MPa, 10 min
  Average Log Reduction: 6.5 log
[3]; 300 MPa, 20 min
  Average Log Reduction: 7.3 log
[3]; 300 MPa, 30 min
  Average Log Reduction: 7.3 log
[3]; 300 MPa, 40 min
  Average Log Reduction: ≧8.0 log
[3]; [11]
  Average Log Reduction: 3.8 log
[3]; 500 MPa, 1 min
  Average Log Reduction: 7.9 log
[3]; 500 MPa, 5 min
  Average Log Reduction: 8.0 log
[3]; 500 MPa, 10 min
  Average Log Reduction: ≧8.0 log
[3]; 500 MPa, 15 min
  Average Log Reduction: ≧8.0 log
[3]; 500 MPa, 20 min
  Average Log Reduction: ≧8.0 log
[3]; 500 MPa, 30 min
  Average Log Reduction: ≧8.0 log
[3]; [12]
  Average Log Reduction: 7.7 log
[3]; 700 MPa, 0.5 min
  Average Log Reduction: 7.5 log
[3]; 700 MPa, 1 min
  Average Log Reduction: ≧8.0 log
[3]; 700 MPa, 2 min
  Average Log Reduction: ≧8.0 log
[3]; 700 MPa, 5 min
  Average Log Reduction: ≧8.0 log
[3]; 700 MPa, 10 min
  Average Log Reduction: ≧8.0 log
[3]; 700 MPa, 15 min
  Average Log Reduction: ≧8.0 log
[4]; [10]
  Average Log Reduction: 0 log
[4]; 300 MPa, 1 min
  Average Log Reduction: 0.2 log
[4]; 300 MPa, 5 min
  Average Log Reduction: 0.2 log
[4]; 300 MPa, 10 min
  Average Log Reduction: 0.8 log
[4]; 300 MPa, 20 min
  Average Log Reduction: 3.8 log
[4]; 300 MPa, 30 min
  Average Log Reduction: 5.0 log
[4]; 300 MPa, 40 min
  Average Log Reduction: 5.7 log
[4]; 300 MPa, 50 min
  Average Log Reduction: 7.2 log
[4]; [11]
  Average Log Reduction: 0.2 log
[4]; 500 MPa, 1 min
  Average Log Reduction: 7.2 log
[4]; 500 MPa, 5 min
  Average Log Reduction: 7.6 log
[4]; 500 MPa, 10 min
  Average Log Reduction: ≧8.0 log
[4]; 500 MPa, 20 min
  Average Log Reduction: 7.9 log
[4]; 500 MPa, 30 min
  Average Log Reduction: 7.8 log
[4]; 500 MPa, 40 min
  Average Log Reduction: ≧8.0 log
[4]; [12]
  Average Log Reduction: 7.6 log
[4]; 700 MPa, 0.5 min
  Average Log Reduction: 7.7 log
[4]; 700 MPa, 1 min
  Average Log Reduction: 7.8 log
[4]; 700 MPa, 5 min
  Average Log Reduction: ≧8.0 log
[4]; 700 MPa, 10 min
  Average Log Reduction: ≧8.0 log
[4]; 700 MPa, 15 min
  Average Log Reduction: ≧8.0 log
[4]; 700 MPa, 20 min
  Average Log Reduction: ≧8.0 log
[5]; [10]
  Average Log Reduction: 0 log
[5]; 300 MPa, 1 min
  Average Log Reduction: 0 log
[5]; 300 MPa, 5 min
  Average Log Reduction: 0 log
[5]; 300 MPa, 10 min
  Average Log Reduction: 0.2 log
[5]; 300 MPa, 20 min
  Average Log Reduction: 1.0 log
[5]; 300 MPa, 30 min
  Average Log Reduction: 1.6 log
[5]; 300 MPa, 40 min
  Average Log Reduction: 2.3 log
[5]; 300 MPa, 50 min
  Average Log Reduction: 2.4 log
[5]; 300 MPa, 60 min
  Average Log Reduction: 3.1 log
[5]; [11]
  Average Log Reduction: 0.2 log
[5]; 500 MPa, 5 min
  Average Log Reduction: 7.6 log
[5]; 500 MPa, 10 min
  Average Log Reduction: 7.8 log
[5]; 500 MPa, 20 min
  Average Log Reduction: ≧7.9 log
[5]; 500 MPa, 30 min
  Average Log Reduction: 7.8 log
[5]; 500 MPa, 40 min
  Average Log Reduction: ≧7.9 log
[5]; 500 MPa, 50 min
  Average Log Reduction: ≧7.9 log
[5]; [12]
  Average Log Reduction: 5.3 log
[5]; 700 MPa, 1 min
  Average Log Reduction: ≧8.0 log
[5]; 700 MPa, 5 min
  Average Log Reduction: ≧8.0 log
[5]; 700 MPa, 10 min
  Average Log Reduction: ≧7.9 log
[5]; 700 MPa, 15 min
  Average Log Reduction: ≧7.9 log
[5]; 700 MPa, 20 min
  Average Log Reduction: 7.8 log
[5]; 700 MPa, 30 min
  Average Log Reduction: ≧8.0 log
[6]; [13]
  Percentage of Bags Testing Positive For Listeria in Batch of 5 (±S.D.): 100%
[6]; [14]
  Percentage of Bags Testing Positive For Listeria in Batch of 5 (±S.D.): 15 (±30) %
[6]; Run 10: 0 MPa, nisin 0 IU/g
  Percentage of Bags Testing Positive For Listeria in Batch of 3 (±S.D.): 100%
[6]; Run 15: 600 MPa, nisin 0 IU/g
  Percentage of Bags Testing Positive For Listeria in Batch of 3 (±S.D.): 0%
[7]; [13]
  Percentage of Bags Testing Positive For Listeria in Batch of 5 (±S.D.): 100%
[7]; [14]
  Percentage of Bags Testing Positive For Listeria in Batch of 5 (±S.D.): 25 (±30) %
[7]; Run 10: 0 MPa, nisin 0 IU/g
  Percentage of Bags Testing Positive For Listeria in Batch of 3 (±S.D.): 100%
[7]; Run 15: 600 MPa, nisin 0 IU/g
  Percentage of Bags Testing Positive For Listeria in Batch of 3 (±S.D.): 0%
[8]; [13]
  Percentage of Bags Testing Positive For Listeria in Batch of 5 (±S.D.): 100%
[8]; [14]
  Percentage of Bags Testing Positive For Listeria in Batch of 5 (±S.D.): 20 (±16) %
[8]; Run 10: 0 MPa, nisin 0 IU/g
  Percentage of Bags Testing Positive For Listeria in Batch of 3 (±S.D.): 100%
[8]; Run 15: 600 MPa, nisin 0 IU/g
  Percentage of Bags Testing Positive For Listeria in Batch of 3 (±S.D.): 0%
[9]
  tailing phenomenon: eliminated the tailing phenomenon

## nisin (ITSISLCTPGCKTGALMGCNMKTATCHCSIHVSK; not fully specified; Lantibiotic nisin-A; UniProt P13068 24-57, looked up) [lantibiotic; antimicrobial polypeptide produced by Lactococcus lactis; pure nisin or commercial Nisaplin from Aplin & Barrett]
[6]; [15]
  Percentage of Bags Testing Positive For Listeria in Batch of 5 (±S.D.): 100%
[6]; [16]
  Percentage of Bags Testing Positive For Listeria in Batch of 5 (±S.D.): 15 (±19) %
[7]; [15]
  Percentage of Bags Testing Positive For Listeria in Batch of 5 (±S.D.): 100%
[7]; [16]
  Percentage of Bags Testing Positive For Listeria in Batch of 5 (±S.D.): 30 (±38) %
[8]; [15]
  Percentage of Bags Testing Positive For Listeria in Batch of 5 (±S.D.): 100%
[8]; [16]
  Percentage of Bags Testing Positive For Listeria in Batch of 5 (±S.D.): 10 (±20) %
